ChEMBL document CHEMBL1201862, “PubChem BioAssay data set” (2004)
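Each compound was tested at five concentrations against cells in 96-well plates for 48 hours. GI50 is the concentration that inhibits growth by half.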 The source made the active and inactive calls. Cut-off read from the data, not from the text of the source: active = GI50 up to about 1.1 µM and inactive = higher.

Tests used:
Test in all cases: NCI anticancer screen, dose series, 48 h
BT-549 = system: BT-549
CAKI-1 = system: CAKI-1
COLO 205 = system: COLO 205
DU-145 = system: DU-145
HOP-62 = system: HOP-62
K562 = system: K562
LOX IMVI = system: LOX IMVI
MDA-MB-435 = system: MDA-MB-435
NCI-H226 = system: NCI-H226
NCI/ADR-RES = system: NCI/ADR-RES
OVCAR-5 = system: OVCAR-5
RXF 393 = system: RXF 393
SK-MEL-2 = system: SK-MEL-2
SNB-19 = system: SNB-19
SR = system: SR
T47D = system: T47D
U-251 = system: U-251
UACC-62 = system: UACC-62
HCC 2998 = system: HCC 2998
MDA-MB-231 = system: MDA-MB-231

Row | SMILES | GI50 (BT-549) | GI50 (CAKI-1) | GI50 (COLO 205) | GI50 (DU-145) | GI50 (HOP-62) | GI50 (K562) | GI50 (LOX IMVI) | GI50 (MDA-MB-435) | GI50 (NCI-H226) | GI50 (NCI/ADR-RES) | GI50 (OVCAR-5) | GI50 (RXF 393) | GI50 (SK-MEL-2) | GI50 (SNB-19) | GI50 (SR) | GI50 (T47D) | GI50 (U-251) | GI50 (UACC-62) | GI50 (HCC 2998) | GI50 (MDA-MB-231)
1 | CCOC(=O)CCC(C(=O)OCC)n1nc2ccc(Nc3c(C)[n+]([O-])c4cc(Cl)ccc4[n+]3[O-])cc2n1 (configuration not stated) | > 100 µM (inactive) | 61.7 µM (inactive) | 75.7 µM (inactive) | > 100 µM (inactive) | > 100 µM (inactive) | 82 µM (inactive) | 58.3 µM (inactive) | 69.7 µM (inactive) | 62.4 µM (inactive) | > 100 µM (inactive) | > 100 µM (inactive) | 30.8 µM (inactive) | 96.2 µM (inactive) | > 100 µM (inactive) | 10.1 µM (inactive) | 32.9 µM (inactive) | > 100 µM (inactive) | 66.1 µM (inactive) |  | 
2 | O=C1Nc2ccccc2Cn2c1cc1oc(-c3ccccc3)cc12 |  | 30 µM (inactive) | > 100 µM (inactive) | 17.3 µM (inactive) | 21.6 µM (inactive) | 50.2 µM (inactive) | > 100 µM (inactive) | > 100 µM (inactive) |  | 45.5 µM (inactive) | 62.4 µM (inactive) | 21.4 µM (inactive) | 44.2 µM (inactive) | 22.5 µM (inactive) | > 100 µM (inactive) | 23.8 µM (inactive) | 16 µM (inactive) | 34.1 µM (inactive) | > 100 µM (inactive) | 32.5 µM (inactive)
3 | CC(=O)N/N=C1/CC[C@@]2(C)C(=CC[C@H]3C4CCC(C(C)CCCC(C)C)[C@@]4(C)CCC32)C1(C)C (some centres not stated) | > 100 µM (inactive) | > 100 µM (inactive) | 32.9 µM (inactive) | > 100 µM (inactive) | > 100 µM (inactive) | 15.9 µM (inactive) | 3.94 µM (inactive) | 82 µM (inactive) | > 100 µM (inactive) | 47.8 µM (inactive) | > 100 µM (inactive) |  | 58.3 µM (inactive) | 75.3 µM (inactive) | 50.9 µM (inactive) | 70.5 µM (inactive) | 75.5 µM (inactive) | > 100 µM (inactive) |  | 
4 | CCC(=O)Nc1ccc(NS(=O)(=O)c2ccc(Cl)cc2)cc1 | > 100 µM (inactive) | 91.4 µM (inactive) | > 100 µM (inactive) | > 100 µM (inactive) | > 100 µM (inactive) | 29.9 µM (inactive) | > 100 µM (inactive) | > 100 µM (inactive) | 19.5 µM (inactive) | > 100 µM (inactive) | > 100 µM (inactive) | > 100 µM (inactive) | > 100 µM (inactive) | > 100 µM (inactive) | 89.3 µM (inactive) | > 100 µM (inactive) |  | 99.3 µM (inactive) | > 100 µM (inactive) | 
5 | CCCCCCOc1ccc(NC2=C(Cl)C(=O)c3ncccc3C2=O)cc1 | 1.76 µM (inactive) |  |  | 1.5 µM (inactive) | 1.92 µM (inactive) | 2.59 µM (inactive) | 1.61 µM (inactive) | 1.7 µM (inactive) | 5.61 µM (inactive) |  | 7.35 µM (inactive) | 1.84 µM (inactive) |  | 1.97 µM (inactive) |  | 1.68 µM (inactive) | 1.61 µM (inactive) | 1.44 µM (inactive) |  | 
6 | Cn1c(=O)sc2cc(C(=S)N3CCCCC3)ccc21 | 66.4 µM (inactive) | 46.9 µM (inactive) | 57.9 µM (inactive) | > 100 µM (inactive) | > 100 µM (inactive) | 47.9 µM (inactive) | 81.5 µM (inactive) | > 100 µM (inactive) | 18.6 µM (inactive) | 29.6 µM (inactive) | > 100 µM (inactive) | 38.8 µM (inactive) | > 100 µM (inactive) | > 100 µM (inactive) | 22 µM (inactive) |  | 41.8 µM (inactive) | > 100 µM (inactive) |  | 45.9 µM (inactive)
7 | CCCNC(=S)N/C=C1/C(=O)Oc2ccccc2C1=O | > 100 µM (inactive) | > 100 µM (inactive) | > 100 µM (inactive) | 54.1 µM (inactive) | > 100 µM (inactive) |  | > 100 µM (inactive) | > 100 µM (inactive) | > 100 µM (inactive) | > 100 µM (inactive) | > 100 µM (inactive) | 60.4 µM (inactive) | 75.3 µM (inactive) | > 100 µM (inactive) | > 100 µM (inactive) |  | > 100 µM (inactive) | 92 µM (inactive) | > 100 µM (inactive) | > 100 µM (inactive)
8 | Cc1c2ccncc2cc2c1sc1ccncc12 | 2.49 µM (inactive) | 2.01 µM (inactive) | 3.24 µM (inactive) | 1.97 µM (inactive) | 1.74 µM (inactive) | 4.14 µM (inactive) | 1.57 µM (inactive) |  | 0.684 µM (active) |  | 3.18 µM (inactive) | 5.24 µM (inactive) | 6.17 µM (inactive) | 2.74 µM (inactive) | 0.325 µM (active) | 2.04 µM (inactive) | 2.22 µM (inactive) | 2.16 µM (inactive) | 5.52 µM (inactive) | 3.57 µM (inactive)
9 | N#CCc1n[nH]c2nc(SCc3ccccc3)nc(N3CCCCC3)c12 | 18.6 µM (inactive) | 19.9 µM (inactive) | 17.9 µM (inactive) | 18.2 µM (inactive) | 20.4 µM (inactive) | 18.6 µM (inactive) | 21 µM (inactive) | 19.9 µM (inactive) |  | 17.6 µM (inactive) | 20.2 µM (inactive) | 17.1 µM (inactive) | 20.7 µM (inactive) | 18.9 µM (inactive) |  | 19.5 µM (inactive) | 18.7 µM (inactive) |  | 17.5 µM (inactive) | 
10 | Cc1ccc(C)c(NC(=O)C(=O)C(c2cnc3ccc([N+](=O)[O-])cc3n2)[N+](=O)[O-])c1 (configuration not stated) | 53.5 µM (inactive) |  | 60.8 µM (inactive) | 77.4 µM (inactive) | 20.9 µM (inactive) | 41.4 µM (inactive) |  | 46.2 µM (inactive) | 34.1 µM (inactive) | 25.8 µM (inactive) | > 100 µM (inactive) | 50.1 µM (inactive) | > 100 µM (inactive) | > 100 µM (inactive) | 34.4 µM (inactive) | 38.5 µM (inactive) | 40.8 µM (inactive) | 64.1 µM (inactive) | 55.8 µM (inactive) | 
11 | CC(=O)O[C@H]1CC[C@@]2(C)C(=CC[C@@H]3[C@@H]2CC[C@]2(C)c4nc(N)c(C#N)cc4C[C@@H]32)C1 | 33.3 µM (inactive) | > 100 µM (inactive) | 20.2 µM (inactive) | 40.7 µM (inactive) | 8.34 µM (inactive) | 15.8 µM (inactive) | 32.2 µM (inactive) | 33.7 µM (inactive) | > 100 µM (inactive) |  | > 85.3 µM (inactive) | 10.7 µM (inactive) | 35.9 µM (inactive) | > 100 µM (inactive) |  | 11.4 µM (inactive) | 43.9 µM (inactive) | 40.6 µM (inactive) | > 55.3 µM (inactive) | 44.2 µM (inactive)
12 | Cc1ccc(Cl)c2c1NC(=O)/C2=N\Nc1ccccc1[N+](=O)[O-] |  | > 100 µM (inactive) | 46.3 µM (inactive) | 47.1 µM (inactive) | 56.1 µM (inactive) | 39.4 µM (inactive) | 25.6 µM (inactive) | 15.7 µM (inactive) | > 100 µM (inactive) | 57.1 µM (inactive) | > 100 µM (inactive) | > 100 µM (inactive) | > 100 µM (inactive) | 68.4 µM (inactive) | 8.22 µM (inactive) | 44.3 µM (inactive) | 31.6 µM (inactive) | 31.4 µM (inactive) | 36.9 µM (inactive) | 75 µM (inactive)
13 | O=C1CCCC2C(O)CCC[C@H]12 (some centres not stated) | > 100 µM (inactive) | > 100 µM (inactive) | > 100 µM (inactive) | > 100 µM (inactive) | > 100 µM (inactive) | > 100 µM (inactive) | > 100 µM (inactive) |  | > 100 µM (inactive) | > 100 µM (inactive) | > 100 µM (inactive) | 11.4 µM (inactive) | > 100 µM (inactive) | > 100 µM (inactive) | > 100 µM (inactive) | > 100 µM (inactive) | > 100 µM (inactive) | > 100 µM (inactive) | > 100 µM (inactive) | > 100 µM (inactive)
14 | COc1cc2noc(-c3ccccc3)c2cc1OC |  | 27.4 µM (inactive) | 55.3 µM (inactive) |  | 22.4 µM (inactive) | 50.6 µM (inactive) | 40.6 µM (inactive) |  | > 100 µM (inactive) |  | 29.2 µM (inactive) | 23.8 µM (inactive) | 75.9 µM (inactive) | 54 µM (inactive) | 37 µM (inactive) |  | 26.7 µM (inactive) | 74.3 µM (inactive) | 58.1 µM (inactive) | 
15 | O=C(NCCN1CCCCC1)c1cccc(I)c1 | > 100 µM (inactive) | > 100 µM (inactive) |  |  |  | > 100 µM (inactive) | > 100 µM (inactive) |  | > 100 µM (inactive) | > 100 µM (inactive) | > 100 µM (inactive) | > 100 µM (inactive) |  | > 100 µM (inactive) | > 100 µM (inactive) |  | > 100 µM (inactive) | > 100 µM (inactive) | > 100 µM (inactive) | 
16 | CC(C)=CCC/C(C)=C/COc1c2ccoc2cc2oc(=O)ccc12 [BERGAMOTTIN] | 44.3 µM (inactive) | 44 µM (inactive) | 17.5 µM (inactive) |  | 43.4 µM (inactive) | 22.4 µM (inactive) | 21 µM (inactive) | 34.6 µM (inactive) | 30.1 µM (inactive) | 35 µM (inactive) | 23.8 µM (inactive) |  | 16 µM (inactive) | 32.3 µM (inactive) | 15.2 µM (inactive) | 19.3 µM (inactive) | 20.6 µM (inactive) | 10.7 µM (inactive) | 28.2 µM (inactive) | 24.4 µM (inactive)
